Measured values from patent publication US7906491B2 (Univisitair Medisch Centrum Utrecht, priority 2002, dated 2011).

Columns and labels:
Epac1-ΔDEP1 = target: T1, Epac1-ΔDEP1 (Homo sapiens, UniProt O95398); assay: In vitro GEF assay: Epac activity in the exchange reaction towards Rap (mantGDP-loaded Rap1b); type: biochemical; settings: in vitro in the exchange reaction towards Rap; note: key: +++: activity comparible to I-007; ++: activity between I-007 and cAMP; +: activity comparible to cAMP; ±: activity less than cAMP
T1 sequence (O95398 191-923 limits assumed): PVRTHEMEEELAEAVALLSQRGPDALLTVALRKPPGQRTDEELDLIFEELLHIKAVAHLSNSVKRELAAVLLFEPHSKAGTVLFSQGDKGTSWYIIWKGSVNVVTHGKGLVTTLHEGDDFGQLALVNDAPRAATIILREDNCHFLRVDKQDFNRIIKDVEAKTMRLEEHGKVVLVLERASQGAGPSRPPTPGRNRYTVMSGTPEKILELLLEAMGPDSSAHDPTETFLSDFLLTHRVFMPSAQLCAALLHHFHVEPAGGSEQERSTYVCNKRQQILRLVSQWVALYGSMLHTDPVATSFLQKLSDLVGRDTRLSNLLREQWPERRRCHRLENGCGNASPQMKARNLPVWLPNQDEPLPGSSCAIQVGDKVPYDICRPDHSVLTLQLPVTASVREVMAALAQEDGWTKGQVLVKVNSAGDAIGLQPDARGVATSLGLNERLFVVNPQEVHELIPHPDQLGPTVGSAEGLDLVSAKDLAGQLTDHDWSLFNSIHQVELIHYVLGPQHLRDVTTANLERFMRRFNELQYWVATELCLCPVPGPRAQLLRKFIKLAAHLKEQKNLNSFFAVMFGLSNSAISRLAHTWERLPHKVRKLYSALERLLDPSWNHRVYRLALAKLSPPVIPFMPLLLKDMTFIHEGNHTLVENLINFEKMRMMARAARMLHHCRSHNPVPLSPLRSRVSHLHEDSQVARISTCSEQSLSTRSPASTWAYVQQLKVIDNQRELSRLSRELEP
Protocol: In vitro GEF assays were performed as described (3,16). […] Buffer conditions were 50 mM Tris pH7.4, 150 mM NaCl, 5% glycerol, 5 mM DTE, 60 μM GTP. Reactions were carried out in 96-well plates and measured in a Cary Eclipse from Varian Inc., using the manufacturers software.

Epac = target: T2, Epac (Homo sapiens, UniProt O95398); assay: Relative affinity for Epac (cAMP = 1), in vitro; type: binding; settings: relative to cAMP = 1
T2 sequence (O95398 1-923): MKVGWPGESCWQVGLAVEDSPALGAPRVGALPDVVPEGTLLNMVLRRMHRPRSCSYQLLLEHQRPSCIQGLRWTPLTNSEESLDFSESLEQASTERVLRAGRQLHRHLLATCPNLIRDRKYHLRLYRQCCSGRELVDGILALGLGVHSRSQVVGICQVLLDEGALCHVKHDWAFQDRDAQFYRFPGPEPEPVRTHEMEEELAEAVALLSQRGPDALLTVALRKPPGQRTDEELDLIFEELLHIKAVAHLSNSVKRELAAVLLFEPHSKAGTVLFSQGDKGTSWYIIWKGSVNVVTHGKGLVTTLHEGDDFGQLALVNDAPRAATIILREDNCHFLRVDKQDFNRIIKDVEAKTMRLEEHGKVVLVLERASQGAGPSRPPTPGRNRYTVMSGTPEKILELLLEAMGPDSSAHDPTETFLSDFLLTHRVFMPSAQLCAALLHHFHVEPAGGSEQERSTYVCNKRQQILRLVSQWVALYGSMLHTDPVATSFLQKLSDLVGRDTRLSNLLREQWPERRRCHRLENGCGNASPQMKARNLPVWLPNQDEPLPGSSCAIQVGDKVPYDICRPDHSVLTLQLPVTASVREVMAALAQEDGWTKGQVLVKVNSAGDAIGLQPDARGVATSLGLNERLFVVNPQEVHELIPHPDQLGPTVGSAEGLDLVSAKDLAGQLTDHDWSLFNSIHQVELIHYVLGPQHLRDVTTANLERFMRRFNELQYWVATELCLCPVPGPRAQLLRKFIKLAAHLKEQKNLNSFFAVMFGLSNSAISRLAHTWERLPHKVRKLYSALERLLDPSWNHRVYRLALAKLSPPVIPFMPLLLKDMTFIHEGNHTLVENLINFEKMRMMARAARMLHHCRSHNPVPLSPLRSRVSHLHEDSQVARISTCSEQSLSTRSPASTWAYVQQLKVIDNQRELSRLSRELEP

PKAI = assay: Relative affinity for PKAI (cAMP = 1), in vitro; type: binding; settings: relative to cAMP = 1
PKAII = assay: Relative affinity for PKAII (cAMP = 1), in vitro; type: binding; settings: relative to cAMP = 1

| Substance | Relative activity of Epac* (Epac1-ΔDEP1) | Relative affinity CAMP = 1 Epac (Epac) | Relative affinity CAMP = 1 PKAI (PKAI) | Relative affinity CAMP = 1 PKAII (PKAII) |
| --- | --- | --- | --- | --- |
| 8-(2-amino-phenylthio)-2′-O-methyladenosine-3′,5′-cyclic monophosphate [Compound I-107] | + | 1.3 | 0.004 | 0.0001 |
| 8-(4-chloro-phenylthio)-2′-deoxyadenosine-3′,5′-cyclic monophosphate [Compound I-003] | + | 0.2 | 0.001 | 0.001 |
| 8-(4-fluoro-phenylthio)-2′-O-methyladenosine-3′,5′-cyclic monophosphate [Compound I-102] | +++ | 4.5 | 0.02 | 0.0004 |
| 8-(4-methoxy-phenylthio)-2′-O-methyladenosine-3′,5′-cyclic monophosphate [Compound I-112] | +++ | 6.5 | 0.025 | 0.0006 |
| 8-(4-methyl-cumarinyl-7-thio)-2′-O-methyladenosine-3′,5′-cyclic monophosphate [Compound I-103] | ± | 1.8 | 0.03 | 0.0005 |
| 8-(4-nitro-phenylthio)-2′-O-methyladenosine-3′,5′-cyclic monophosphate [Compound I-106] | ++ | 1.2 | 0.02 | 0.0002 |
| 8-(naphtyl-2-thio)-2′-O-methyladenosine-3′,5′-cyclic monophosphate [Compound I-104] | ++ | 2.3 | 0.03 | 0.001 |
| 8-benzylthio-2′-O-methyladenosine-3′,5′-cyclic monophosphate [Compound I-108] | + | 1.3 | 0.04 | 0.0007 |
| 8-bromo-2′-O-methyladenosine-3′,5′-cyclic monophosphate [Compound I-006] | ++ | 0.9 | 0.0015 | 0.003 |
| 8-bromo-2′-deoxyadenosine-3′,5′-cyclic monophosphate [Compound I-002] | + | 0.12 | 0.01 | 0.00001 |
| 8-isopropylthio-2′-O-methyladenosine-3′,5′-cyclic monophosphate [Compound I-113] | + | 0.7 | 0.028 | 0.0004 |
| 8-methylamino-2′-O-methyladenosine-3′,5′-cyclic monophosphate [Compound I-100] | ± | <0.5 | 0.0014 | 0.0001 |
| 8-methylthio-2′-O-methyladenosine-3′,5′-cyclic monophosphate [Compound I-101] | + | 1.3 | 0.012 | 0.0006 |
| 8-n-hexylthio-2′-O-methyladenosine-3′,5′-cyclic monophosphate [Compound I-109] | ++ | 1.2 | 0.03 | 0.0008 |
| 8-phenylthio-2′-O-methyladenosine-3′,5′-cyclic monophosphate [Compound I-105] | ++ | 3.6 | 0.02 | 0.0005 |
